Reference: the NIST ThermoML archive (doi:10.1021/je8001305)
Numbers after ± are expanded uncertainties.

Test: xn = mol fraction of the nth substance listed
Details: Liquid, Vibrating tube method

CC(C)O [propan-2-ol] + O
mass density (325.1 K, 4598.7 kPa, x1 = 0.2483): 877.08 ± 0.89 kg/m3
mass density (325.1 K, 5089.3 kPa, x1 = 0.2483): 877.36 ± 0.89 kg/m3
mass density (325.1 K, 5564.2 kPa, x1 = 0.2483): 877.68 ± 0.89 kg/m3
mass density (325.1 K, 5954.2 kPa, x1 = 0.2483): 877.93 ± 0.89 kg/m3
mass density (325.1 K, 6394.3 kPa, x1 = 0.2483): 878.21 ± 0.89 kg/m3
mass density (325.1 K, 6808.5 kPa, x1 = 0.2483): 878.48 ± 0.89 kg/m3
mass density (325.1 K, 7288 kPa, x1 = 0.2483): 878.8 ± 0.89 kg/m3
mass density (325.1 K, 7782.7 kPa, x1 = 0.2483): 879.08 ± 0.89 kg/m3
mass density (325.1 K, 8079.1 kPa, x1 = 0.2483): 879.34 ± 0.89 kg/m3
mass density (325.1 K, 8438.9 kPa, x1 = 0.2483): 879.63 ± 0.89 kg/m3
mass density (325.1 K, 8828.5 kPa, x1 = 0.2483): 879.87 ± 0.89 kg/m3
mass density (325.1 K, 9358.9 kPa, x1 = 0.2483): 880.18 ± 0.89 kg/m3
mass density (325.13 K, 29.2 kPa, x1 = 0.7258): 782.68 ± 0.79 kg/m3
mass density (325.13 K, 83 kPa, x1 = 0.7258): 782.69 ± 0.79 kg/m3
mass density (325.13 K, 268.1 kPa, x1 = 0.7258): 782.93 ± 0.79 kg/m3
mass density (325.13 K, 528.3 kPa, x1 = 0.7258): 783.18 ± 0.79 kg/m3
mass density (325.13 K, 873.7 kPa, x1 = 0.7258): 783.5 ± 0.79 kg/m3
mass density (325.13 K, 1298.6 kPa, x1 = 0.7258): 783.92 ± 0.8 kg/m3
mass density (325.13 K, 1709.2 kPa, x1 = 0.7258): 784.33 ± 0.8 kg/m3
mass density (325.13 K, 2200.7 kPa, x1 = 0.7258): 784.79 ± 0.8 kg/m3
mass density (325.13 K, 2652.1 kPa, x1 = 0.7258): 785.22 ± 0.8 kg/m3
mass density (325.13 K, 3101.7 kPa, x1 = 0.7258): 785.67 ± 0.8 kg/m3
mass density (325.13 K, 3550.6 kPa, x1 = 0.7258): 786.11 ± 0.8 kg/m3
mass density (325.13 K, 4068.3 kPa, x1 = 0.7258): 786.61 ± 0.8 kg/m3
mass density (325.13 K, 4579.4 kPa, x1 = 0.7258): 787.07 ± 0.8 kg/m3
mass density (325.13 K, 5021.7 kPa, x1 = 0.7258): 787.49 ± 0.8 kg/m3
mass density (325.13 K, 5496.1 kPa, x1 = 0.7258): 787.93 ± 0.8 kg/m3
mass density (325.13 K, 5972.3 kPa, x1 = 0.7258): 788.38 ± 0.81 kg/m3
mass density (325.13 K, 6450.8 kPa, x1 = 0.7258): 788.82 ± 0.81 kg/m3
mass density (325.13 K, 6903 kPa, x1 = 0.7258): 789.24 ± 0.81 kg/m3
mass density (325.13 K, 7392 kPa, x1 = 0.7258): 789.7 ± 0.81 kg/m3
mass density (325.13 K, 7861.1 kPa, x1 = 0.7258): 790.11 ± 0.81 kg/m3
mass density (325.13 K, 8322.8 kPa, x1 = 0.7258): 790.52 ± 0.81 kg/m3
mass density (325.13 K, 8813.9 kPa, x1 = 0.7258): 790.98 ± 0.81 kg/m3
mass density (325.13 K, 9287.4 kPa, x1 = 0.7258): 791.41 ± 0.81 kg/m3
mass density (325.13 K, 9829.7 kPa, x1 = 0.7258): 791.93 ± 0.81 kg/m3
mass density (350.15 K, 88 kPa, x1 = 0.4939): 789.82 ± 0.8 kg/m3
mass density (350.15 K, 161.7 kPa, x1 = 0.4939): 789.8 ± 0.8 kg/m3
mass density (350.15 K, 387.8 kPa, x1 = 0.4939): 790.1 ± 0.8 kg/m3
mass density (350.15 K, 695.2 kPa, x1 = 0.4939): 790.45 ± 0.8 kg/m3
mass density (350.15 K, 1020.8 kPa, x1 = 0.4939): 790.78 ± 0.8 kg/m3
mass density (350.15 K, 1400.1 kPa, x1 = 0.4939): 791.25 ± 0.8 kg/m3
mass density (350.15 K, 1795.8 kPa, x1 = 0.4939): 791.61 ± 0.8 kg/m3
mass density (350.15 K, 2147.1 kPa, x1 = 0.4939): 791.96 ± 0.81 kg/m3
mass density (350.15 K, 2497.9 kPa, x1 = 0.4939): 792.31 ± 0.81 kg/m3
mass density (350.15 K, 2892.7 kPa, x1 = 0.4939): 792.74 ± 0.81 kg/m3
mass density (350.15 K, 3277.9 kPa, x1 = 0.4939): 793.12 ± 0.81 kg/m3
mass density (350.15 K, 3611.5 kPa, x1 = 0.4939): 793.5 ± 0.81 kg/m3
mass density (350.15 K, 4087.3 kPa, x1 = 0.4939): 794.01 ± 0.81 kg/m3
mass density (350.15 K, 4606.7 kPa, x1 = 0.4939): 794.49 ± 0.81 kg/m3
mass density (350.15 K, 4955.2 kPa, x1 = 0.4939): 794.83 ± 0.81 kg/m3
mass density (350.15 K, 5376 kPa, x1 = 0.4939): 795.26 ± 0.81 kg/m3
mass density (350.15 K, 5837.6 kPa, x1 = 0.4939): 795.69 ± 0.81 kg/m3
mass density (350.15 K, 6296.4 kPa, x1 = 0.4939): 796.18 ± 0.81 kg/m3
mass density (350.15 K, 6886.6 kPa, x1 = 0.4939): 796.77 ± 0.82 kg/m3
mass density (350.15 K, 7400.8 kPa, x1 = 0.4939): 797.28 ± 0.82 kg/m3
mass density (350.15 K, 7935.6 kPa, x1 = 0.4939): 797.73 ± 0.82 kg/m3
mass density (350.15 K, 8400.3 kPa, x1 = 0.4939): 798.24 ± 0.82 kg/m3
mass density (350.15 K, 9000.6 kPa, x1 = 0.4939): 798.68 ± 0.82 kg/m3
mass density (350.15 K, 9521.2 kPa, x1 = 0.4939): 799.18 ± 0.82 kg/m3
mass density (350.18 K, 84.4 kPa, x1 = 0.2483): 850.19 ± 0.86 kg/m3
mass density (350.18 K, 220 kPa, x1 = 0.2483): 850.33 ± 0.86 kg/m3
mass density (350.18 K, 511 kPa, x1 = 0.2483): 850.54 ± 0.86 kg/m3
mass density (350.18 K, 938.8 kPa, x1 = 0.2483): 850.91 ± 0.86 kg/m3
mass density (350.18 K, 1369.7 kPa, x1 = 0.2483): 851.29 ± 0.86 kg/m3
mass density (350.18 K, 2066.9 kPa, x1 = 0.2483): 851.75 ± 0.86 kg/m3
mass density (350.18 K, 2381 kPa, x1 = 0.2483): 852.09 ± 0.86 kg/m3
mass density (350.18 K, 2718.1 kPa, x1 = 0.2483): 852.39 ± 0.86 kg/m3
mass density (350.18 K, 3107.7 kPa, x1 = 0.2483): 852.73 ± 0.86 kg/m3
mass density (350.18 K, 3464.8 kPa, x1 = 0.2483): 853.04 ± 0.87 kg/m3
mass density (350.18 K, 3957.6 kPa, x1 = 0.2483): 853.37 ± 0.87 kg/m3
mass density (350.18 K, 4346 kPa, x1 = 0.2483): 853.71 ± 0.87 kg/m3
mass density (350.18 K, 4781.1 kPa, x1 = 0.2483): 854.06 ± 0.87 kg/m3
mass density (350.18 K, 5267.8 kPa, x1 = 0.2483): 854.49 ± 0.87 kg/m3
mass density (350.18 K, 5743.8 kPa, x1 = 0.2483): 854.83 ± 0.87 kg/m3
mass density (350.18 K, 6196.4 kPa, x1 = 0.2483): 855.2 ± 0.87 kg/m3
mass density (350.18 K, 6734.2 kPa, x1 = 0.2483): 855.63 ± 0.87 kg/m3
mass density (350.18 K, 7374.9 kPa, x1 = 0.2483): 856.07 ± 0.87 kg/m3
mass density (350.18 K, 7999 kPa, x1 = 0.2483): 856.54 ± 0.87 kg/m3
mass density (350.18 K, 8630.3 kPa, x1 = 0.2483): 857.02 ± 0.87 kg/m3
mass density (350.18 K, 9298.3 kPa, x1 = 0.2483): 857.54 ± 0.87 kg/m3
mass density (351.14 K, 93.2 kPa, x1 = 0.7258): 756.9 ± 0.77 kg/m3
mass density (351.14 K, 241.5 kPa, x1 = 0.7258): 757.15 ± 0.77 kg/m3
mass density (351.14 K, 444.5 kPa, x1 = 0.7258): 757.34 ± 0.77 kg/m3
mass density (351.14 K, 822.4 kPa, x1 = 0.7258): 757.8 ± 0.77 kg/m3
mass density (351.14 K, 1271.6 kPa, x1 = 0.7258): 758.33 ± 0.77 kg/m3
mass density (351.14 K, 1673.9 kPa, x1 = 0.7258): 758.75 ± 0.77 kg/m3
mass density (351.14 K, 2070.5 kPa, x1 = 0.7258): 759.26 ± 0.77 kg/m3
mass density (351.14 K, 2461.1 kPa, x1 = 0.7258): 759.66 ± 0.77 kg/m3
mass density (351.14 K, 2863.4 kPa, x1 = 0.7258): 760.12 ± 0.78 kg/m3
mass density (351.14 K, 3280.9 kPa, x1 = 0.7258): 760.61 ± 0.78 kg/m3
mass density (351.14 K, 4252.5 kPa, x1 = 0.7258): 761.65 ± 0.78 kg/m3
mass density (351.14 K, 4626.4 kPa, x1 = 0.7258): 762.11 ± 0.78 kg/m3
mass density (351.14 K, 5075.9 kPa, x1 = 0.7258): 762.61 ± 0.78 kg/m3
mass density (351.14 K, 5558.5 kPa, x1 = 0.7258): 763.09 ± 0.78 kg/m3
mass density (351.14 K, 5976.2 kPa, x1 = 0.7258): 763.59 ± 0.78 kg/m3
mass density (351.14 K, 6439.8 kPa, x1 = 0.7258): 764.08 ± 0.79 kg/m3
mass density (351.14 K, 6882.2 kPa, x1 = 0.7258): 764.57 ± 0.79 kg/m3
mass density (351.14 K, 7348.6 kPa, x1 = 0.7258): 765.1 ± 0.79 kg/m3
mass density (351.14 K, 7809.3 kPa, x1 = 0.7258): 765.6 ± 0.79 kg/m3
mass density (351.14 K, 8254 kPa, x1 = 0.7258): 766.09 ± 0.79 kg/m3
mass density (351.14 K, 8720.2 kPa, x1 = 0.7258): 766.63 ± 0.79 kg/m3
mass density (351.14 K, 9221.3 kPa, x1 = 0.7258): 767.15 ± 0.79 kg/m3
mass density (351.14 K, 9714.8 kPa, x1 = 0.7258): 767.73 ± 0.79 kg/m3
mass density (351.14 K, 10240 kPa, x1 = 0.7258): 768.31 ± 0.8 kg/m3
